Measurements reported in the supplement of paper PMC11208160.

Experiment: recombinant UMI read abundance after kanamycin selection (control-corrected) (log10(CPM+1)); higher = more efficient recombination; extreme values may be limits of the assay; sequences stand for … in AGTGCAGAGAAAATCGGCCAGTTTTCTCTGCCTGCAGTCCGCATGCCGTGGGACCCCTTGGGTTCTAACCTGTTGCCTAGATTTATGCAGCGGACTGCCTTTCTCCCAAAGTGATAAACCGG…AGGTTGGTTTCACT; site = the 11-nt donor
Procedure, shortened: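 Sequencing read counts were converted to CPM, averaged over two replicates and scaled by control-derived factors. Results are given as log10(CPM+1). The reads covered the donor–target junction of recombinant UMIs from a pooled Escherichia coli screen of donor and donor-binding-loop pairs for the IS621 bridge recombinase.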
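Further: IS621 bridge recombinase in Escherichia coli cells against a fixed T5 target plasmid.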

Sequence | recombinant UMI read abundance (log10)
GATTACCCATGGACCGGTTTTCCCGGTAATCCGTATTTGCT (site GATTATCCTAG) | 0
GATTATCCATGGACCGGTTTTCCCGGTAATCCGTATTTGCT (site AATTATCCTAG) | 0
GATTATCCATGGACCGGTTTTCCCGGTAATCCGTATTTGCT (site CATTATCCTAG) | 0.436
GATTATCCATGGACCGGTTTTCCCGGTAATCCGTATTTGCT (site GAATATCCTAG) | 0
GATTATCCATGGACCGGTTTTCCCGGTAATCCGTATTTGCT (site GACTATCCTAG) | 0
GATTATCCATGGACCGGTTTTCCCGGTAATCCGTATTTGCT (site GAGTATCCTAG) | 0
GATTATCCATGGACCGGTTTTCCCGGTAATCCGTATTTGCT (site GATAATCCTAG) | 0
GATTATCCATGGACCGGTTTTCCCGGTAATCCGTATTTGCT (site GATCATCCTAG) | 0.81
GATTATCCATGGACCGGTTTTCCCGGTAATCCGTATTTGCT (site GATGATCCTAG) | 0
GATTATCCATGGACCGGTTTTCCCGGTAATCCGTATTTGCT (site GATTAACCTAG) | 0
GATTATCCATGGACCGGTTTTCCCGGTAATCCGTATTTGCT (site GATTACCCTAG) | 0
GATTATCCATGGACCGGTTTTCCCGGTAATCCGTATTTGCT (site GATTAGCCTAG) | 0.351
GATTATCCATGGACCGGTTTTCCCGGTAATCCGTATTTGCT (site GATTATACTAG) | 0
GATTATCCATGGACCGGTTTTCCCGGTAATCCGTATTTGCT (site GATTATCCTAA) | 0.00555
GATTATCCATGGACCGGTTTTCCCGGTAATCCGTATTTGCT (site GATTATCCTAC) | 0.0217
GATTATCCATGGACCGGTTTTCCCGGTAATCCGTATTTGCT (site GATTATCCTAG) | 0
GATTATCCATGGACCGGTTTTCCCGGTAATCCGTATTTGCT (site GATTATCCTAT) | 0.0146
GATTATCCATGGACCGGTTTTCCCGGTAATCCGTATTTGCT (site GATTATCCTCG) | 0
GATTATCCATGGACCGGTTTTCCCGGTAATCCGTATTTGCT (site GATTATCCTGG) | 0
GATTATCCATGGACCGGTTTTCCCGGTAATCCGTATTTGCT (site GATTATCCTTG) | 0
GATTATCCATGGACCGGTTTTCCCGGTAATCCGTATTTGCT (site GATTATGCTAG) | 0
GATTATCCATGGACCGGTTTTCCCGGTAATCCGTATTTGCT (site GATTATTCTAG) | 0
GATTATCCATGGACCGGTTTTCCCGGTAATCCGTATTTGCT (site GATTCTCCTAG) | 0
GATTATCCATGGACCGGTTTTCCCGGTAATCCGTATTTGCT (site GATTGTCCTAG) | 0
GATTATCCATGGACCGGTTTTCCCGGTAATCCGTATTTGCT (site GATTTTCCTAG) | 0

Sequence | recombinant UMI read abundance (log10)
GATTATCCATGGACCGGTTTTCCCGGTAATCCGTATTTGCT (site GCTTATCCTAG) | 0
GATTATCCATGGACCGGTTTTCCCGGTAATCCGTATTTGCT (site GGTTATCCTAG) | 0
GATTATCCATGGACCGGTTTTCCCGGTAATCCGTATTTGCT (site GTTTATCCTAG) | 0
GATTATCCATGGACCGGTTTTCCCGGTAATCCGTATTTGCT (site TATTATCCTAG) | 0
GATTATGCATGGACCGGTTTTCCCGGTAATCCGTATTTGCT (site GATTATACTAG) | 1.54
GATTATGCATGGACCGGTTTTCCCGGTAATCCGTATTTGCT (site GATTATCCTAG) | 0.309
GATTATGCATGGACCGGTTTTCCCGGTAATCCGTATTTGCT (site GATTATGCTAG) | 2.13
GATTATGCATGGACCGGTTTTCCCGGTAATCCGTATTTGCT (site GATTATTCTAG) | 0
GATTCACCATGGACCGGTTTTCCCGGTAATCCGTATTTGTT (site GATTCACCTAA) | 0.0124
GATTCGACATGGACCGGTTTTCCCGGTAATCCGTATTTGAC (site GATTAGACTGT) | 0
GATTCGACATGGACCGGTTTTCCCGGTAATCCGTATTTGAC (site GATTCGACTGT) | 2.01
GATTCGACATGGACCGGTTTTCCCGGTAATCCGTATTTGAC (site GATTGGACTGT) | 0
GATTCGACATGGACCGGTTTTCCCGGTAATCCGTATTTGAC (site GATTTGACTGT) | 0
GATTGCACATGGACCGGTTTTCCCGGTAATCCGTATTTGAC (site GATTGAACTGT) | 0
GATTGCACATGGACCGGTTTTCCCGGTAATCCGTATTTGAC (site GATTGCACTGT) | 1.53
GATTGCACATGGACCGGTTTTCCCGGTAATCCGTATTTGAC (site GATTGGACTGT) | 0
GATTGCACATGGACCGGTTTTCCCGGTAATCCGTATTTGAC (site GATTGTACTGT) | 0
GATTGCCCATGGACCGGTTTTCCCGGTAATCCGTATTTGAT (site GATTGCCCTAT) | 0
GATTGCCCATGGACCGGTTTTCCCGGTAATCCGTATTTGAT (site GCTTGCCCTAT) | 0.0105
GATTGCCCATGGACCGGTTTTCCCGGTAATCCGTATTTGAT (site GGTTGCCCTAT) | 0.00714
GATTGCCCATGGACCGGTTTTCCCGGTAATCCGTATTTGAT (site GTTTGCCCTAT) | 0.00814
GATTGGACATGGACCGGTTTTCCCGGTAATCCGTATTTGAA (site GATTGGACTAT) | 0.0122
GATTGGACATGGACCGGTTTTCCCGGTAATCCGTATTTGAA (site GATTGGACTCT) | 0.0133
GATTGGACATGGACCGGTTTTCCCGGTAATCCGTATTTGAA (site GATTGGACTGT) | 0
GATTGGACATGGACCGGTTTTCCCGGTAATCCGTATTTGAA (site GATTGGACTTT) | 0.419

Sequence | recombinant UMI read abundance (log10)
GATTGGACATGGACCGGTTTTCCCGGTAATCCGTATTTGAC (site AATTGGACTGT) | 0.543
GATTGGACATGGACCGGTTTTCCCGGTAATCCGTATTTGAC (site CATTGGACTGT) | 0.263
GATTGGACATGGACCGGTTTTCCCGGTAATCCGTATTTGAC (site GAATGGACTGT) | 1.41
GATTGGACATGGACCGGTTTTCCCGGTAATCCGTATTTGAC (site GACTGGACTGT) | 0
GATTGGACATGGACCGGTTTTCCCGGTAATCCGTATTTGAC (site GAGTGGACTGT) | 0
GATTGGACATGGACCGGTTTTCCCGGTAATCCGTATTTGAC (site GATAGGACTGT) | 0.353
GATTGGACATGGACCGGTTTTCCCGGTAATCCGTATTTGAC (site GATCGGACTGT) | 0.745
GATTGGACATGGACCGGTTTTCCCGGTAATCCGTATTTGAC (site GATGGGACTGT) | 0
GATTGGACATGGACCGGTTTTCCCGGTAATCCGTATTTGAC (site GATTAGACTGT) | 0
GATTGGACATGGACCGGTTTTCCCGGTAATCCGTATTTGAC (site GATTCGACTGT) | 0
GATTGGACATGGACCGGTTTTCCCGGTAATCCGTATTTGAC (site GATTGAACTGT) | 0
GATTGGACATGGACCGGTTTTCCCGGTAATCCGTATTTGAC (site GATTGCACTGT) | 0
GATTGGACATGGACCGGTTTTCCCGGTAATCCGTATTTGAC (site GATTGGACTAT) | 0.0111
GATTGGACATGGACCGGTTTTCCCGGTAATCCGTATTTGAC (site GATTGGACTCT) | 0.00872
GATTGGACATGGACCGGTTTTCCCGGTAATCCGTATTTGAC (site GATTGGACTGA) | 0.0103
GATTGGACATGGACCGGTTTTCCCGGTAATCCGTATTTGAC (site GATTGGACTGC) | 0
GATTGGACATGGACCGGTTTTCCCGGTAATCCGTATTTGAC (site GATTGGACTGG) | 0
GATTGGACATGGACCGGTTTTCCCGGTAATCCGTATTTGAC (site GATTGGACTGT) | 0.659
GATTGGACATGGACCGGTTTTCCCGGTAATCCGTATTTGAC (site GATTGGACTTT) | 0.0228
GATTGGACATGGACCGGTTTTCCCGGTAATCCGTATTTGAC (site GATTGGCCTGT) | 0
GATTGGACATGGACCGGTTTTCCCGGTAATCCGTATTTGAC (site GATTGGGCTGT) | 0
GATTGGACATGGACCGGTTTTCCCGGTAATCCGTATTTGAC (site GATTGGTCTGT) | 0
GATTGGACATGGACCGGTTTTCCCGGTAATCCGTATTTGAC (site GATTGTACTGT) | 0
GATTGGACATGGACCGGTTTTCCCGGTAATCCGTATTTGAC (site GATTTGACTGT) | 0
GATTGGACATGGACCGGTTTTCCCGGTAATCCGTATTTGAC (site GCTTGGACTGT) | 0
